Measured values as given in US20240092802A1, “MU-OPIOID RECEPTOR AGONISTS AND USES THEREFOR” (Kures, Inc., priority 2020, published 2024).

biological target: Human MOR (Homo sapiens (Human), UniProt P35372); experiment: BRET G protein activation assay, human MOR in transfected HEK-293T cells; format: cell-based; conditions: BRET G protein activation, HEK-293T; mean ± SEM; read-out: EC50 Human MOR
From the text: Transfection. Human or mouse MOR cDNA was transfected alongside GαoB with RLuc8 inserted at position 91 (GαoB-RLuc8), Gβ1 (β1), and Gγ2 fused to the full-length mVenus at its N terminus (mVenus γ2) into HEK-293T cells (5×10^6 cells/plate) in 10-cm dishes using PEI (Polysciences Inc.; Warrington, PA) in a 1:1 ratio diluted in Opti-MEM (Life Technologies Corp.; Grand Island, NY) to assay for G protein activation as described previously (Rives, M.-L. et al. J. Biol. Chem. 2012, 287, 27050-4; Negri, A.; Rives, M.-L.; Caspers, M. J. et al. J. Chem. Inf. Model. 2013, 53, 521-526). Cells were maintained in the Dulbecco's Modified Eagle Medium (high glucose #11965; Life Technologies) supplemented with 10% FBS (Premium Select, Atlanta Biologicals; Atlanta, GA) and 100 U/mL penicillin and 100 μg/mL streptomycin (#15140, Life Technologies). After 24 hours the media was changed, and the experiment was performed 24 hours later (48 hours after transfection).
BRET. Transfected cells were dissociated and resuspended in phosphate-buffered saline (PBS). Approximately 200,000 cells/well were added to a black-framed, white well 96-well plate (#60050; Perkin Elmer; Waltham, MA). The microplate was centrifuged and the cells were resuspended in PBS. Then 5 μM of the luciferase substrate coelenterazine H was added to each well for 5 minutes. Following coelenterazine H addition, ligands were added and the BRET signal was measured at 5 minutes on a PHERAstar FS plate reader. Quantification of the BRET signal required calculating the ratio of the light emitted by the energy acceptor, mVenus (510-540 nm), over the light emitted by the energy donor, RLuc8 (485 nm). […] Dose response curves were fit using three-parameter logistics equation in GraphPad Prism 6.

Chain of Human MOR (P35372 whole entry, the tested form may be a part): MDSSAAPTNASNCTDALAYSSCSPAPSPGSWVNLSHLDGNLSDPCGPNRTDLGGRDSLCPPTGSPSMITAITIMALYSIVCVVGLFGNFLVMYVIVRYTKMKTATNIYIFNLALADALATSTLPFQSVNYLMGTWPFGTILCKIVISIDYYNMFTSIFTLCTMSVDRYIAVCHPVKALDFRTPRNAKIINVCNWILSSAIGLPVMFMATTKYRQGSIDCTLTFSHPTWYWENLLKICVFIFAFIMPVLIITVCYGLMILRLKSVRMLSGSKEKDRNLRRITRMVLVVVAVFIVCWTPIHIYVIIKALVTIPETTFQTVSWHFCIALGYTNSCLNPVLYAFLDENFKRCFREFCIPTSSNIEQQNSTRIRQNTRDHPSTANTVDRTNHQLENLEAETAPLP

For CSCCCNC1c2ccccc2N(C)S(=O)(=O)c2cc(Cl)ccc21 (stereo not drawn) [compound 33, 3-Chloro-6-methyl-11-((3-(methylthio)propyl)amino)-6,11-dihydrodibenzo[c,f][1,2]thiazepine 5,5-dioxide], which EC50 is on record?
The EC50 was less than 10 µM.

With CCOCCCNC1c2ccc(Cl)cc2S(=O)(=O)N(C)c2ccsc21 (stereo not drawn) [compound 78, 7-Chloro-10-((3-ethoxypropyl)amino)-4-methyl-4, 10-dihydrobenzo[f]thieno[3,2-c][1,2]thiazepine 5,5-dioxide] as the molecule, how does the EC50 read?
Its EC50 is less than 10 µM.

With CN1CCCC1CCNC1c2ccccc2N(C)S(=O)(=O)c2cc(Cl)ccc21 (stereo not drawn) [compound 47, 3-chloro-6-methyl-11-((2-(1-methylpyrrolidin-2-yl)ethyl)amino)-6,11-dihydrodibenzo[c,f][1,2]thiazepine 5,5-dioxide] as the molecule, how does the EC50 read?
The EC50 was less than 20 µM.

With COCCCNC1c2ccccc2N(C)S(=O)(=O)c2cc(OC(C)=O)ccc21 (stereo not drawn) [compound 59, 11-((3-Methoxypropyl)amino)-6-methyl-5,5-dioxido-6,11-dihydrodibenzo[c,f][1,2]thiazepin-3-yl acetate] as the molecule, how does the EC50 read?
The EC50 was less than 10 µM.

With COCCCNC1c2ccccc2N(C)S(=O)(=O)c2cc(OC)ccc21 (stereo not drawn) [compound 27, 3-Methoxy-11-((3-methoxypropyl)amino)-6-methyl-6,11-dihydrodibenzo [c,f][1,2]thiazepine 5,5-dioxide] as the molecule, how does the EC50 read?
Its EC50 is less than 10 µM.

How did the EC50 turn out when COCCCNC1c2ccc(Cl)cc2S(=O)(=O)N(C)c2ccsc21 (stereo not drawn) [compound 77, 7-Chloro-10-((3-methoxypropyl)amino)-4-methyl-4, 10-dihydrobenzo[f]thieno[3,2-c][1,2]thiazepine 5,5-dioxide] was run?
The EC50 was less than 10 µM.

For CC(C)OCCCNC1c2ccccc2N(C)S(=O)(=O)c2cc(Cl)ccc21 (stereo not drawn) [compound 35, 3-Chloro-11-((3-isopropoxypropyl)amino)-6-methyl-6,11-dihydrodibenzo [c,f][1,2]thiazepine 5,5-dioxide], which EC50 is on record?
The EC50 was less than 10 µM.

How did the EC50 turn out when COCCCNC1c2ccccc2S(=O)(=O)N(C)c2ccsc21 (stereo not drawn) [compound 7, 10-((3-Methoxypropyl)amino)-4-methyl-4,10-dihydrobenzo[f]thieno[3,2-c][1,2]thiazepine 5,5-dioxide] was run?
Its EC50 is less than 10 µM.

For COCCCNC1c2cc(Br)ccc2N(C)S(=O)(=O)c2cc(Cl)ccc21 (stereo not drawn) [compound 11, 9-Bromo-3-chloro-11-((3-methoxypropyl)amino)-6-methyl-6,11-dihydrodibenzo[c,f][1,2]thiazepine 5,5-dioxide], which EC50 is on record?
The EC50 was less than 10 µM.

How did the EC50 turn out when CCOC(=O)CCCCCCNC1c2ccc(Cl)cc2S(=O)(=O)N(C)c2ccsc21 (stereo not drawn) [compound 79, Ethyl 7-((7-chloro-4-methyl-5,5-dioxido-4, 10-dihydrobenzo[f]thieno[3,2-c][1,2]thiazepin-10-yl)amino)heptanoate] was run?
Its EC50 is less than 10 µM.

Which EC50 does the source give for COCC(C)CNC1c2ccccc2N(C)S(=O)(=O)c2cc(Cl)ccc21 (stereo not drawn) [compound 68, 3-Chloro-11-((3-methoxy-2-methylpropyl)amino)-6-methyl-6,11-dihydrodibenzo[c,f][1,2]thiazepine 5,5-dioxide] here?
Its EC50 is less than 10 µM.

For COCCCNC1c2ccccc2S(=O)(=O)N(C)c2c(Br)csc21 (stereo not drawn) [compound 43, 3-Bromo-10-((3-methoxypropyl)amino)-4-methyl-4, 10-dihydrobenzo[f]thieno[3,2-c][1,2]thiazepine 5,5-dioxide], which EC50 is on record?
The EC50 was less than 20 µM.

For CCOC(=O)CCCCCCNC1c2ccccc2S(=O)(=O)N(C)c2ccsc21 (stereo not drawn) [compound 6, Ethyl 7-((4-methyl-5,5-dioxido-4,10-dihydrobenzo[f]thieno[3,2-c][1,2]thiazepin-10-yl)amino)heptanoate], which EC50 is on record?
The EC50 was less than 10 µM.

For COCCCNC1c2ccccc2N(C)S(=O)(=O)c2ccccc21 (stereo not drawn) [compound 10, 11-((3-Methoxypropyl)amino)-6-methyl-6,11-dihydrodibenzo[c,f][1,2]thiazepine 5,5-dioxide], which EC50 is on record?
Its EC50 is less than 10 µM.

COCCCNC1c2ccccc2N(C)S(=O)(=O)c2ccc(Cl)cc21 (stereo not drawn) [compound 60, 2-Chloro-11-((3-methoxypropyl)amino)-6-methyl-6,11-dihydrodibenzo [c,f][1,2]thiazepine 5,5-dioxide] was tested. Which EC50 did it give?
Its EC50 is less than 20 µM.

How did the EC50 turn out when COC(C)CCNC1c2ccccc2N(C)S(=O)(=O)c2cc(Cl)ccc21 (stereo not drawn) [compound 67, 3-Chloro-11-((3-methoxybutyl)amino)-6-methyl-6,11-dihydrodibenzo [c,f][1,2]thiazepine 5,5-dioxide] was run?
Its EC50 is less than 10 µM.

Which EC50 does the source give for COCCCNC1c2ccccc2N(C)S(=O)(=O)c2cc(-c3ccccc3)ccc21 (stereo not drawn) [compound 56, 11-((3-Methoxypropyl)amino)-6-methyl-3-phenyl-6,11-dihydrodibenzo[c,f][1,2]thiazepine 5,5-dioxide] here?
The EC50 was less than 10 µM.

How did the EC50 turn out when CCOC(=O)CCCCCCNC1c2ccc(Br)cc2S(=O)(=O)N(C)c2ccsc21 (stereo not drawn) [compound 74, Ethyl 7-((7-bromo-4-methyl-5,5-dioxido-4, 10-dihydrobenzo[f]thieno[3,2-c][1,2]thiazepin-10-yl)amino)heptanoate] was run?
Its EC50 is less than 10 µM.

Which EC50 does the source give for COCCCCNC1c2ccccc2N(C)S(=O)(=O)c2cc(Cl)ccc21 (stereo not drawn) [compound 39, 3-Chloro-11-((4-methoxybutyl)amino)-6-methyl-6,11-dihydrodibenzo [c,f][1,2]thiazepine 5,5-dioxide] here?
Its EC50 is less than 10 µM.

For CCOCCCNC1c2ccc(Br)cc2S(=O)(=O)N(C)c2ccsc21 (stereo not drawn) [compound 73, 7-Bromo-10-((3-ethoxypropyl)amino)-4-methyl-4, 10-dihydrobenzo[f]thieno[3,2-c][1,2]thiazepine 5,5-dioxide], which EC50 is on record?
The EC50 was less than 10 µM.

With COCCCNC1c2ccccc2S(=O)(=O)N(C)c2c(OC)cccc21 (stereo not drawn) [compound 50, 7-Methoxy-11-((3-methoxypropyl)amino)-6-methyl-6,11-dihydrodibenzo [c,f][1,2]thiazepine 5,5-dioxide] as the molecule, how does the EC50 read?
Its EC50 is less than 20 µM.

How did the EC50 turn out when COCCCNC1c2ccc(Cl)cc2N(C)S(=O)(=O)c2ccccc21 (stereo not drawn) [compound 69, 8-Chloro-11-((3-methoxypropyl)amino)-6-methyl-6,11-dihydrodibenzo [c,f][1,2]thiazepine 5,5-dioxide] was run?
Its EC50 is less than 20 µM.

COCCCNC1c2ccc(Br)cc2S(=O)(=O)N(C)c2ccsc21 (stereo not drawn) [compound 72, 7-Bromo-10-((3-methoxypropyl)amino)-4-methyl-4, 10-dihydrobenzo[f]thieno[3,2-c][1,2]thiazepine 5,5-dioxide] was tested. Which EC50 did it give?
Its EC50 is less than 10 µM.

Which EC50 does the source give for COCCCNC1c2ccccc2N(C)S(=O)(=O)c2cc(Oc3ccccc3)ccc21 (stereo not drawn) [compound 29, 11-((3-Methoxypropyl)amino)-6-methyl-3-phenoxy-6,11-dihydrodibenzo [c,f][1,2]thiazepine 5,5-dioxide] here?
Its EC50 is less than 10 µM.

CN1c2ccccc2C(NCCCCCCC2=NCCO2)c2ccc(Cl)cc2S1(=O)=O (stereo not drawn) [compound 58, 3-Chloro-11-((6-(4,5-dihydrooxazol-2-yl)hexyl)amino)-6-methyl-6,11-dihydrodibenzo[c,f][1,2]thiazepine 5,5-dioxide] was tested. Which EC50 did it give?
Its EC50 is less than 10 µM.

CC(=O)OCCCCCCNC1c2ccccc2N(C)S(=O)(=O)c2cc(Cl)ccc21 (stereo not drawn) [compound 13, 6-((3-Chloro-6-methyl-5,5-dioxido-6,11-dihydrodibenzo[c,f][1,2]thiazepin-11-yl)amino)hexyl acetate] was tested. Which EC50 did it give?
Its EC50 is less than 10 µM.

With CCOC(CCCNC1c2ccccc2N(C)S(=O)(=O)c2cc(Cl)ccc21)OCC (stereo not drawn) [compound 24, 3-Chloro-11-((4,4-diethoxybutyl)amino)-6-methyl-6,11-dihydrodibenzo[c,f][1,2]thiazepine 5,5-dioxide] as the molecule, how does the EC50 read?
The EC50 was less than 10 µM.

COCCCNC1c2ccccc2N(C)S(=O)(=O)c2cc([S+](C)[O-])ccc21 (stereo not drawn) [compound 55, 11-((3-Methoxypropyl)amino)-6-methyl-3-(methylsulfinyl)-6,11-dihydrodibenzo[c,f][1,2]thiazepine 5,5-dioxide] was tested. Which EC50 did it give?
Its EC50 is less than 20 µM.

With COCCCNC1c2ccccc2N(C)S(=O)(=O)c2cc(C)ccc21 (stereo not drawn) [compound 15, 11-((3-Methoxypropyl)amino)-3,6-dimethyl-6,11-dihydrodibenzo[c,f][1,2]thiazepine 5,5-dioxide] as the molecule, how does the EC50 read?
The EC50 was less than 10 µM.

COCCCNC1c2ccccc2N(C)S(=O)(=O)c2cc(OCc3ccccc3)ccc21 (stereo not drawn) [compound 75, 3-(Benzyloxy)-11-((3-methoxypropyl)amino)-6-methyl-6,11-dihydrodibenzo[c,f][1,2]thiazepine 5,5-dioxide] was tested. Which EC50 did it give?
Its EC50 is greater than 20 µM.

With CCN1c2ccccc2C(NCCCOC)c2ccccc2S1(=O)=O (stereo not drawn) [compound 65, 6-Ethyl-11-((3-methoxypropyl)amino)-6,11-dihydrodibenzo[c,f][1,2]thiazepine 5,5-dioxide] as the molecule, how does the EC50 read?
Its EC50 is greater than 20 µM.

CN1c2ccccc2C(NCCCC2OCCCO2)c2ccc(Cl)cc2S1(=O)=O (stereo not drawn) [compound 31, 11-((3-(1,3-Dioxan-2-yl)propyl)amino)-3-chloro-6-methyl-6,11-dihydrodibenzo[c,f][1,2]thiazepine 5,5-dioxide] was tested. Which EC50 did it give?
Its EC50 is less than 10 µM.

How did the EC50 turn out when CN1c2ccccc2C(NCC2CCOC2)c2ccc(Cl)cc2S1(=O)=O (stereo not drawn) [compound 46, 3-chloro-6-methyl-11-(((tetrahydrofuran-3-yl)methyl)amino)-6,11-dihydrodibenzo[c,f][1,2]thiazepine 5,5-dioxide] was run?
Its EC50 is less than 10 µM.
